Test results taken from ChEMBL document CHEMBL5727375, “Apoptosis signal-regulating kinase 1 inhibitors and methods of use thereof” (2019).

Target: T1, Mitogen-activated protein kinase kinase kinase 5 (Homo sapiens, UniProt Q99683)
T1 sequence (Q99683 whole entry): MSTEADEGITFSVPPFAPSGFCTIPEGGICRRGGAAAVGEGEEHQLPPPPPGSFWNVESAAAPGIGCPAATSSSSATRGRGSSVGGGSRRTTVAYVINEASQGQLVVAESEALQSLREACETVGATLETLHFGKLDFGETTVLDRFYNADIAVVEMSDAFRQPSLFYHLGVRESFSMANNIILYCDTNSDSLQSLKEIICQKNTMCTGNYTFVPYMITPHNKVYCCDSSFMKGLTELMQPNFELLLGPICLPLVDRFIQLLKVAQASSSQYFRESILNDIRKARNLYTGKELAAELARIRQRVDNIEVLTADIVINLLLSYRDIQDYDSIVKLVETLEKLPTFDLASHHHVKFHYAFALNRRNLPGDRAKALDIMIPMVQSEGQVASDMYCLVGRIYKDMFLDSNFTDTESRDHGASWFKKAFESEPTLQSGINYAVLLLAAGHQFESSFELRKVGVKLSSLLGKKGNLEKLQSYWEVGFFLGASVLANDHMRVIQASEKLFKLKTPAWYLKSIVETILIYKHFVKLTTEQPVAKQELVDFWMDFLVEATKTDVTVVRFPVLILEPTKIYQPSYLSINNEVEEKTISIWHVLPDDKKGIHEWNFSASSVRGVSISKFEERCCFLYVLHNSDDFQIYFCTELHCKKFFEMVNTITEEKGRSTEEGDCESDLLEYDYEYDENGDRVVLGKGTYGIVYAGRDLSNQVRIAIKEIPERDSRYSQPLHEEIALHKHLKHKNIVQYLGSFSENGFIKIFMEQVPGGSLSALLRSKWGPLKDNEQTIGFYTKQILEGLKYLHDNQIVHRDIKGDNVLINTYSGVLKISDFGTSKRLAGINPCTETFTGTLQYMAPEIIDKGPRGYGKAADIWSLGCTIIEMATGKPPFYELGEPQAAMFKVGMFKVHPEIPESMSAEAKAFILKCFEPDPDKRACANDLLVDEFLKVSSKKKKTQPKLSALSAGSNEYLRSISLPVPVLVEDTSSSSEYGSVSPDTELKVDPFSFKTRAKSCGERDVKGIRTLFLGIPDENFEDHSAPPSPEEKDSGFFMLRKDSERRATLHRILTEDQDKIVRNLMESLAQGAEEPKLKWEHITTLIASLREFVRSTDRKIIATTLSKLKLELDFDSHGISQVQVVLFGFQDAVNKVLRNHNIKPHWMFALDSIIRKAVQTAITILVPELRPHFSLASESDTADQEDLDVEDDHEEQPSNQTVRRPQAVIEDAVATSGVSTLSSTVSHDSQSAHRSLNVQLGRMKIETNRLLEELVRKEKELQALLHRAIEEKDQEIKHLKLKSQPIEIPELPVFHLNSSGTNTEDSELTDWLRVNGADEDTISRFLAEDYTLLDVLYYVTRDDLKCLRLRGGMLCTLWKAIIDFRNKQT
Assay: HTRF KinEASE Assay : HTRF KinEASE-STK is a generic method for measuring serine/threonine kinase activities using a time-resolved fluorescence resonance energy transfer (TR-FRET) immunoassay. The IC50 value for each compound was determined in the presence of compound (various concentration from 0 to 10 μM) and a fixed amount of ATP and peptide substrates. The test compound, 1 Um STK3 peptide substrate, and 5 Nm of ASK1 kinase are incubated with kinase reaction buffer containing 50 Mm HEPES Ph 7.5, 0.01% BRIJ-35, 10 Mm MgCl2, and 1 Mm EGTA for 30 minutes. 100 Um ATP is added to start kinase reaction and incubated for 3 hours. The STK3-antibody labeled with Eu3+-Cryptate and 125 Nm streptavidin-XL665 are mixed in a single addition with stop reagents provided by the Cisbio kit used to stop the kinase reaction. Fluorescence is detected using an Envision Multilabeled 2014 reader from PerkinElmer. The Fluorescence is measured at 615 nm (Cryptate) and 665 nm (XL665) and a ratio of 665 nm/615 nm is calculated for each well.

`CCOC(=O)N1Cc2cnc(C(=O)Nc3cccc(-c4nncn4C(C)C)n3)cc2C1` gave an IC50 of 10 to 100 nM.
